Laboratory results published in US20140357655A1, “SPIROINDOLINE DERIVATIVES AS GONADOTROPIN- RELEASING HORMONE RECEPTOR ANTAGONISTS” (Bayer Intellectual Property GmbH, priority 2012, published 2014).

Biological target: T1, human GnRH receptor (Homo sapiens, UniProt P30968)
T1 sequence (P30968 1-328): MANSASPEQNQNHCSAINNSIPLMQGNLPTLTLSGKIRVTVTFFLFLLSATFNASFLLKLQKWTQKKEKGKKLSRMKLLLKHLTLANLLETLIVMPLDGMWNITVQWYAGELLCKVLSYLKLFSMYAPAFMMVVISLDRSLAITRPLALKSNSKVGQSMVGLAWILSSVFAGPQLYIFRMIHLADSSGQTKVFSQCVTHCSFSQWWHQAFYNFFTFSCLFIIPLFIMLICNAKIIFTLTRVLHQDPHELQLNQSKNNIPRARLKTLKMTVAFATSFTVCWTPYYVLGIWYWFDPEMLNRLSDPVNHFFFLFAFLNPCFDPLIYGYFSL
Assay: IP-One HTRF assay with buserelin (at EC80) stimulation
Assay type: cell-based
Conditions: CHO cells stably expressing human GnRH receptor, read-out: Potency in IP-One HTRF assay, given as IC50
Procedure, shortened: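 CHO cells stably expressing human GnRH receptor, preincubated 1 h at 37° C with IP1-d2, were exposed to compound and buserelin at EC80 for 1 h at 37° C. After lysis with Tb-anti-IP1 antibody (1 h, 22° C), 665/620 nm HTRF ratio read; 10 concentrations, 20 μM–1 nM, duplicates, 4-parameter IC50.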

Row | SMILES | IC50 [nM]
1 | COc1cccc(S(=O)(=O)N2c3ccc(C(=O)NCc4ccccc4Cl)cc3C3(CCS(=O)(=O)CC3)C2C2CC2)c1 (centres unmarked) [Example 44, N-(2-chlorobenzyl)-2-cyclopropyl-1-[(3-methoxyphenyl)sulfonyl]-1,2,2′,3′,5′,6′-hexahydrospiro[indole-3,4′-thiopyran]-5-carboxamide 1′,1′-dioxide] | 31
2 | C=CCC1N(S(=O)(=O)c2cccc(C(=O)O)c2)c2ccc(C(=O)NCc3ccccc3Cl)cc2C12CCS(=O)(=O)CC2 (centres unmarked) [Example 56, 3-({5-[(2-chlorobenzyl)carbamoyl]-1′,1′-dioxido-2-(prop-2-en-1-yl)-2′,3′,5′,6′-tetrahydrospiro[indole-3,4′-thiopyran]-1(2H)-yl}sulfonyl)benzoic acid] | 136
3 | COc1cccc(S(=O)(=O)N2c3ccc(C(=O)NCc4ccccc4F)cc3C3(CCS(=O)(=O)CC3)C2C2CC2)c1 (centres unmarked) [Example 47, 2-cyclopropyl-N-(2-fluorobenzyl)-1-[(3-methoxyphenyl)sulfonyl]-1,2,2′,3′,5′,6′-hexahydrospiro[indole-3,4′-thiopyran]-5-carboxamide 1′,1′-dioxide] | 133
4 | N#Cc1ccc(S(=O)(=O)N2c3ccc(C(=O)Nc4ccccc4Cl)cc3C3(CCS(=O)(=O)CC3)C2C2CC2)cc1 (centres unmarked) [Example 74, N-(2-chlorophenyl)-1-[(4-cyanophenyl)sulfonyl]-2-cyclopropyl-1,2,2′,3′,5′,6′-hexahydrospiro[indole-3,4′-thiopyran]-5-carboxamide 1′,1′-dioxide] | 66
5 | O=C(NCc1ccccn1)c1ccc2c(c1)C1(CCS(=O)(=O)CC1)C(C1CC1)N2S(=O)(=O)c1ccc(F)cc1 (centres unmarked) [Example 22, 2-cyclopropyl-1-[(4-fluorophenyl)sulfonyl]-N-(2-pyridylmethyl)-1,2,2′,3′,5′,6′-hexahydrospiro[indole-3,4′-thiopyran]-5-carboxamide 1′,1′-dioxide] | 1480
6 | O=C(NC1CCOc2ccccc21)c1ccc2c(c1)C1(CCS(=O)(=O)CC1)C(C1CC1)N2S(=O)(=O)c1ccc(F)cc1 (single isomer, unassigned) [Example 33.3, 2-cyclopropyl-N-(3,4-dihydro-2H-chromen-4-yl)-1-[(4-fluorophenyl)sulfonyl]-1,2,2′,3′,5′,6′-hexahydrospiro[indole-3,4′-thiopyran]-5-carboxamide 1′,1′-dioxide] | > 20000
7 | O=C(NCc1ncc(F)cc1Cl)c1ccc2c(c1)C1(CCS(=O)(=O)CC1)C(C1CC1)N2S(=O)(=O)c1ccc(F)cc1 (centres unmarked) [Example 17, N-[(3-chloro-5-fluoropyridin-2-yl)methyl]-2-cyclopropyl-1-[(4-fluorophenyl)sulfonyl]-1,2,2′,3′,5′,6′-hexahydrospiro[indole-3,4′-thiopyran]-5-carboxamide 1′,1′-dioxide] | 184
8 | O=C(NCC1CCCCC1)c1ccc2c(c1)C1(CCS(=O)(=O)CC1)C(C1CC1)N2S(=O)(=O)c1ccc(F)cc1 (centres unmarked) [Example 36, N-(cyclohexylmethyl)-2-cyclopropyl-1-[(4-fluorophenyl)sulfonyl]-1,2,2′,3′,5′,6′-hexahydrospiro[indole-3,4′-thiopyran]-5-carboxamide 1′,1′-dioxide] | 169
9 | C=CC1N(S(=O)(=O)c2cccc(C(=O)OC)c2)c2ccc(C(=O)NCc3ccccc3Cl)cc2C12CCS(=O)(=O)CC2 (centres unmarked) [Example 55, methyl 3-({5-[N-(2-chlorobenzyl)carbamoyl]-1′,1′-dioxido-2-vinyl-1,2,2′,3′,5′,6′-hexahydrospiro[indole-3,4′-thiopyran]-1-yl}sulfonyl)benzoate] | 622
10 | O=C(NCc1ncccc1F)c1ccc2c(c1)C1(CCS(=O)(=O)CC1)C(C1CC1)N2S(=O)(=O)c1ccc(F)cc1 (centres unmarked) [Example 52, 2-cyclopropyl-1-[(4-fluorophenyl)sulfonyl]-N-[(3-fluoropyridin-2-yl)methyl]-1,2,2′,3′,5′,6′-hexahydrospiro[indole-3,4′-thiopyran]-5-carboxamide 1′,1′-dioxide] | 752
11 | Cc1cccnc1CNC(=O)c1ccc2c(c1)C1(CCS(=O)(=O)CC1)C(C1CC1)N2S(=O)(=O)c1ccc(F)cc1 (single isomer, unassigned) [Example 31.1, 2-cyclopropyl-1-[(4-fluorophenyl)sulfonyl]-N-[(3-methylpyridin-2-yl)methyl]-1,2,2′,3′,5′,6′-hexahydrospiro[indole-3,4′-thiopyran]-5-carboxamide 1′,1′-dioxide] | 266
12 | COC(=O)c1cccc(S(=O)(=O)N2c3ccc(C(=O)NCc4ccccc4Cl)cc3C3(CCS(=O)(=O)CC3)C2C2CC2)c1 (centres unmarked) [Example 60, methyl 3-({5-[(2-chlorobenzyl)carbamoyl]-2-cyclopropyl-1′,1′-dioxido-2′,3′,5′,6′-tetrahydrospiro[indole-3,4′-thiopyran]-1(2H)-yl}sulfonyl)benzoate] | 192
13 | CC1N(S(=O)(=O)c2ccc(F)cc2)c2ccc(C(=O)NCc3ncccc3Cl)cc2C12CCOCC2 (single isomer, unassigned) [Example 1.2, N-[(3-Chloropyridin-2-yl)methyl]-1-[(4-fluorophenyl)sulfonyl]-2-methyl-1,2,2′,3′,5′,6′-hexahydrospiro[indole-3,4′-pyran]-5-carboxamide] | 19500
14 | O=C(Nc1ccon1)c1ccc2c(c1)C1(CCS(=O)(=O)CC1)C(C1CC1)N2S(=O)(=O)c1ccc(F)cc1 (single isomer, unassigned) [Example 63.2, 2-cyclopropyl-1-[(4-fluorophenyl)sulfonyl]-N-(1,2-oxazol-3-yl)-1,2,2′,3′,5′,6′-hexahydrospiro[indole-3,4′-thiopyran]-5-carboxamide 1′,1′-dioxide] | 3430
15 | O=C(NCC1CCCCC1)c1ccc2c(c1)C1(CCS(=O)(=O)CC1)C(C1CC1)N2S(=O)(=O)c1ccc(F)cc1 (single isomer, unassigned) [Example 36.2, N-(cyclohexylmethyl)-2-cyclopropyl-1-[(4-fluorophenyl)sulfonyl]-1,2,2′,3′,5′,6′-hexahydrospiro[indole-3,4′-thiopyran]-5-carboxamide 1′,1′-dioxide] | 3890
16 | N#Cc1ccc(S(=O)(=O)N2c3ccc(C(=O)NCc4ccccc4C(F)(F)F)cc3C3(CCS(=O)(=O)CC3)C2C2CC2)cc1 (centres unmarked) [Example 72, 1-[(4-cyanophenyl)sulfonyl]-2-cyclopropyl-N-[2-(trifluoromethyl)benzyl]-1,2,2′,3′,5′,6′-hexahydrospiro[indole-3,4′-thiopyran]-5-carboxamide 1′,1′-dioxide] | 13
17 | N#Cc1cccc(S(=O)(=O)N2c3ccc(C(=O)NCc4ncccc4C(F)(F)F)cc3C3(CCS(=O)(=O)CC3)C2C2CC2)c1 (single isomer, unassigned) [Example 79.2, 1-[(3-cyanophenyl)sulfonyl]-2-cyclopropyl-N-{[3-(trifluoromethyl)pyridin-2-yl]methyl}-1,2,2′,3′,5′,6′-hexahydrospiro[indole-3,4′-thiopyran]-5-carboxamide 1′,1′-dioxide] | 1020
18 | O=C(NCc1ccccc1Cl)c1ccc2c(c1)C1(CCSCC1)C(C1CC1)N2S(=O)(=O)c1ccc(F)cc1 (single isomer, unassigned) [Example 12.2, N-(2-Chlorobenzyl)-2-cyclopropyl-1-[(4-fluorophenyl)sulfonyl]-1,2,2′,3′,5′,6′-hexahydrospiro[indole-3,4′-thiopyran]-5-carboxamide] | 3730
19 | O=C(NCC1CCCC1)c1ccc2c(c1)C1(CCS(=O)(=O)CC1)C(C1CC1)N2S(=O)(=O)c1ccc(F)cc1 (centres unmarked) [Example 38, N-(cyclopentylmethyl)-2-cyclopropyl-1-[(4-fluorophenyl)sulfonyl]-1,2,2′,3′,5′,6′-hexahydrospiro[indole-3,4′-thiopyran]-5-carboxamide 1′,1′-dioxide] | 136
20 | O=C(O)c1cccc(NC(=O)c2ccc3c(c2)C2(CCS(=O)(=O)CC2)C(C2CC2)N3S(=O)(=O)c2ccc(F)cc2)c1 (single isomer, unassigned) [Example 49.1, 3-[({2-cyclopropyl-1-[(4-fluorophenyl)sulfonyl]-1′,1′-dioxido-1,2,2′,3′,5′,6′-hexahydrospiro[indole-3,4′-thiopyran]-5-yl}carbonyl)amino]benzoic acid] | 40
21 | O=C(NC1CCOc2ccccc21)c1ccc2c(c1)C1(CCS(=O)(=O)CC1)C(C1CC1)N2S(=O)(=O)c1ccc(F)cc1 (single isomer, unassigned) [Example 33.2, 2-cyclopropyl-N-(3,4-dihydro-2H-chromen-4-yl)-1-[(4-fluorophenyl)sulfonyl]-1,2,2′,3′,5′,6′-hexahydrospiro[indole-3,4′-thiopyran]-5-carboxamide 1′,1′-dioxide] | > 20000
22 | COC(=O)c1cccc(NC(=O)c2ccc3c(c2)C2(CCS(=O)(=O)CC2)C(C2CC2)N3S(=O)(=O)c2cccc(OC(F)F)c2)c1 (single isomer, unassigned) [Example 89.1, methyl 3-{[(2-cyclopropyl-1-{[3-(difluoromethoxy)phenyl]sulfonyl}-1′,1′-dioxido-1,2,2′,3′,5′,6′-hexahydrospiro[indole-3,4′-thiopyran]-5-yl)carbonyl]amino}benzoate] | 63
23 | O=C(NCc1ccccc1Cl)c1ccc2c(c1)C1(CC[S+]([O-])CC1)C(C1CC1)N2S(=O)(=O)c1ccc(F)cc1 (single isomer, unassigned) [Example 13.2, N-(2-Chlorobenzyl)-2-cyclopropyl-1-[(4-fluorophenyl)sulfonyl]-1,2,2′,3′,5′,6′-hexahydrospiro[indole-3,4′-thiopyran]-5-carboxamide 1′-oxide] | 383
